Patent US20150335671A1, “SMALL-MOLECULE BINDING SITE ON PRO-APOPTOTIC BAX REGULATES INHIBITION OF BAX ACTIVITY” (ALBERT EINSTEIN COLLEGE OF MEDICINE OF YESHIVA UNIVERSITY, priority 2013, published 2015)

Tests used:
BAX [1] = molecular target: T1, BAX (Homo sapiens, UniProt Q07812); assay: NMR chemical shift perturbation of 15N-BAX upon titration; format: binding
Description: FIG. 4A-B. Measured chemical shift changes of 15N-BAX upon iMAC1 and iMAC2 titration up to a ratio of 1:4 BAX:iMAC are plotted as a function of BAX residue number. Residues with significant backbone amide chemical shift change are highlighted in orange. Highest significant chemical shift changes (twice the calculated significance threshold) are highlighted in red. […] Chemical shift changes in other regions of the structure are not localized and predominantly occur in hydrophobic residues at the hydrophobic core of the BAX structure. Regions that previously identified to be involved in regulating BAX activation are shown in violet shading (helix α1 and α6), teal shading (helix α2) and yellow shading (helix α9).
FIG. 13: Measured chemical shift changes of ^15N-BAX upon octyl glucoside detergent titration, below the detergent's CMC point, are plotted as a function of BAX residue number. Residues with significant backbone amide chemical shift change are highlighted in orange. Highest significant chemical shift changes (twice the calculated significance threshold) are highlighted in red.
Significant CSP mapped onto the surface and ribbon depictions of BAX (FIG. 5), the BAX trigger site (blue), the canonical BH3-binding site and a9 (green) are included for comparison. Affected residues are represented by the orange and red spheres in the ribbon diagram and by the orange and red bars in the plot (the calculated significance threshold is marked in orange and is equal to the average shift plus the standard deviation while values at double the threshold are marked in red).

oligomeric BAX = oligomeric BAX (Homo sapiens, UniProt Q07812); assay: Ligand-observed NMR (chemical shift, STD, WATER LOGSY); format: binding; details: aromatic peaks of ligand observed
oligomeric BAX, sequence (Q07812 whole entry): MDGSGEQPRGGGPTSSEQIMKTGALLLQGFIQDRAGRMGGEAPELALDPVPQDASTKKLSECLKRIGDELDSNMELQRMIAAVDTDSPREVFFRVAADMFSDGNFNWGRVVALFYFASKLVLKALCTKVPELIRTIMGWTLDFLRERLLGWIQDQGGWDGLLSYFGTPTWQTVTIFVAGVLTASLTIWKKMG
Description: FIG. 22. iMACs bind to both monomer and oligomeric BAX.
iMACs Bind to Both Monomeric and Oligomeric BAX in vitro.

BAX [2] = molecular target: T1, BAX; assay: Liposome release assay (ANTS/DPX release by tBID-activated BAX); format: biochemical
Experimental: FIG. 3. Left: Kinetic trace of percent release of ANTS and DPX from liposomes in response to tBID activated BAX in the absence (blue) and presence of iMAC1 (green) and iMAC2 (Red). Right: Percent release after 20 minutes at different doses of iMAC1 (green), iMAC2 (red) and iMAC3 (blue). Each molecule was tested at 6, 3 and 1.5 μM, high to low doses are indicated by dark to light tones.
FIG. 18A-18B. […] B) Docked structure of […] within the novel BAX site.
iMAC1 and iMAC2 Inhibit BAX Activation in Liposome Release Assays: Liposomes containing the fluorophore, ANTS, and the quencher, DPX, were incubated with 200 nM BAX activated with 30 nM tBID resulting in BAX-mediated pore formation in the liposomal membrane and release of ANTS and DPX.

[3] = system: mitochondrial apoptosis-induced channel; details: Peixoto et al. Biochem J. 2009; cited from earlier work
cardiac myocytes = assay: Cardiac myocyte cell death under hypoxia / normoxia; format: cell-based
Description: Accordingly, it can be seen that inhibitor compounds which bind to the novel BAX site can protect cardiac myocytes from cell death induced by hypoxia.

T1 sequence (Q07812 whole entry): as above

| binding to oligomeric BAX (oligomeric BAX) | Compound | region of chemical shift changes of 15N-BAX (BAX [1]; iMAC titration up to a ratio of 1:4 BAX:iMAC) | inhibition of tBID-induced BAX activation and BAX pore formation (release of ANTS and DPX from liposomes) (BAX [2]; 200 nM BAX, 30 nM tBID, tested at 6, 3 and 1.5 μM, release after 20 minutes) | inhibition of cytochrome c release and mitochondrial apoptosis-induced channel activity [3] | protection from cell death (cardiac myocytes; hypoxia, compared to vehicle (0.2% DMSO)) | effect on cardiac myocytes (cardiac myocytes; normoxia) | region of chemical shift changes of 15N-BAX (BAX [1]; detergent titration below the detergent's CMC point) | binding to the novel BAX site by NMR analysis (BAX [1]; octyl glucoside titration, FIG. 13) | inhibition of BAX activation and BAX-mediated pore formation in liposomal membranes (BAX [2]; concentrations well below the critical micelle concentration (CMC)) |
| --- | --- | --- | --- | --- | --- | --- | --- | --- | --- |
| binding to both oligomeric BAX | Cl.Cl.FC(CN1CCNCC1)Cn1c2ccc(Br)cc2c2cc(Br)ccc21 (stereo not shown) [iMAC2] | concentrated in the region formed by helices α3, α4, α5 and loop α3-α4 | inhibit tBID-induced BAX activation and BAX pore formation | more potent inhibitors |  |  |  |  |  |
|  | OC(CN1CCNCC1)Cn1c2ccc(Br)cc2c2cc(Br)ccc21 (stereo not shown) [iMAC1] |  |  | more potent inhibitors | protects cardiac myocytes from cell death induced by hypoxia | no effect |  |  |  |
|  | CCCCCCCCO[C@@H]1O[C@H](CO)[C@@H](O)[C@H](O)[C@H]1O [n-octyl-3-D-glucoside] |  |  |  |  |  | concentrated in the region formed by helices α3, α4, α5, α6 and loop α3-α4 | binding to the novel site that regulates BAX inhibition | inhibits BAX activation and BAX-mediated pore formation |
